We go through 7 compounds from publication PMC7731283, “Synthesis and Biological Evaluation of Halogenated E-Stilbenols as Promising Antiaging Agents” (Molecules, 2020).

A short description of data set [1]: Log P by RP-HPLC (HPLC-PDA), extrapolation of Log k to 0% MeOH. It counts as physicochemical. The conditions noted are these: for Log k / Retention factor (k): RP-C18. The protocol: For each compound, the retention time was reported at different percentages of mobile phases (Table 1). See Materials and Methods and Supplementary Materials for the detailed procedures. (1) k= tR− tM/tM where tR is the retention time of the sample and tM is the retention time of blank (methanol).
Stock solutions of each compound were prepared as follow: 1 mg of the synthesized compound and RSV (control) was weighted and dissolved in 1 mL of dimethyl sulfoxide (DMSO). The working solutions were prepared in methanol at 100 µg/mL. 20 µL of working solutions was injected in HPLC system without pre-treatment.
The HPLC analyses for all new compounds were carried out in isocratic conditions with Milli-Q Water (18.2 MΩ-cm at 25 °C) as solvent A and MeOH as solvent B in different percentages reported in […]. RP-C18 stationary phase (LiChrosorb C18, 150 × 4.6 mm, 5 µm) column was used. All compounds were detected at their maximum wavelength: 322 nm for 1, 301 nm for 2, 324 nm for 3, 324 nm for 4, 373 nm for 5, 322 nm for 6, 320 nm for 7, whereas RSV was detected at 306 nm. The total run time was kept until sample elution.

Data set [2] concerns C2C12 cells. The data set can be described thus: MTT assay, cell vitality/proliferation. To be noted: C2C12, 48 h, 1 and 10 μM. The format is cell-based, mouse. The protocol: The oxidative stress plays one of the key roles in cell’s life path. For these reasons, to evaluate the possible cytotoxic effects of compounds 1–7 and their effect on the cell proliferative capacity and to define a suitable concentration range, all the new synthesized compounds 1–7 were evaluated for their cytotoxic activity at three different concentrations (1, 10 and 100 μM) via standard MTT assay, using C2C12 cell line (Figure 3). Due to well-known antioxidant and neurodegenerative senescence prevention abilities in addition to enhancing the beneficial effects of physical exercise on the skeletal muscles of the elderly, RSV was used as reference compound [54, 55]. […] For this reason, we performed the same assay also at 48 h for the compounds 5, 6 and RSV (Figure 4).
Prompted by the results obtained for compound 6 as a scavenge ROS due the presence of halogenated groups, we used the widely C2C12 mouse cells as a myogenic model, to study its antioxidant effects following both the evaluation of superoxide anion radical concentration and chemical insults, such as from H2O2. C2C12 cells (CRL 1772; American Type Culture Collection, Rockville, MD, USA) were grown in Dulbecco’s modified Eagle’s medium (DMEM; Euroclone, Pero, Italy) containing 20% foetal bovine serum (Euroclone), […] L-glutamine (Euroclone) and 100 IU mL^−1 penicillin and 100 μg mL^−1 streptomycin (Euroclone). The cells were maintained at 37 °C in a 5% CO2 humidified atmosphere.
Cellular proliferation was tested using a colorimetric assay of 3-[4,5-dimethylthiazol-2-yl]-2,5-diphenyltetrazolium bromide (MTT). We seeded 2000 cells/well in a final volume of 200 μL growth medium in 96-well plates. After 24 h the cells were stimulated with or w/o the newly synthesized compounds for 24 h, or, where indicated, for 48 h. We tested seven new synthesized compounds together with RSV reference at different concentration (1, 10, 100 μM). All compounds were dissolved in DMSO and the experimental dilutions used were made using cellular growth medium. For this reason, the cells were also incubated for 24 h with the DMSO at the same concentration used for the compounds. Incubation was terminated by adding 20 μL of MTT solution (5 mg mL^−1 in phosphate-buffered saline (PBS)) to each well, followed by incubation at 37 °C for 3 h in the dark. After, the plates were centrifuged at 2000 rpm for 15 min. The supernatant was removed, 200 μL dimethylsulfoxide (DMSO) was added to each well, and the plates were incubated for 30 min at 37 °C in the dark. Finally, the plates were read at 540 nm on a scanning multi-well spectrophotometer (Cary50MPR, Varian, Santa Clara, CA, USA).
For orientation: Tetrazolium dyes change colour on reduction, which living cells bring about.

Data set [3] has as its system C2C12 cells. The data set can be described thus: H2DCFDA assay, intracellular ROS after H2O2 insult. It counts as cell-based, mouse. To be noted: C2C12, 24 h pretreatment, 300 µM H2O2, compared to CTRL. The protocol:
Indeed, the antioxidant activity of compound 6 was also evaluated using an H2DCFDA assay (Figure 6). This assay is one of the most widely used techniques for directly measuring the redox state of a cell. In order to accurately measure ROS and the cellular capability to counteract the H2O2 insult, we used cell-permeable fluorescent and chemiluminescent probes. The fluorescence intensity is proportional to the ROS levels within the cell cytosol and it is in inverse relation to the antioxidant capacity of the cells themselves. The ability to restore the basal level of fluorescence are reported in Figure 6, after 0.5 and 10 min following oxidant stimulus.
Intracellular ROS were quantified by the 2′,7′-dichlorodihydrofluorescein diacetate (H2DCF-DA Cat. No. D6883; Sigma). C2C12 cells were plated (2000 cells/well) into special optics 96-well plates (Corning-Costar, New York, NY, USA) and the cells were treated with RSV at 1 µM and Compound 6 at 1 and 10 µM for 24 h. After the incubation, cells were washed with an imaging buffer and treated with 300 µM H2O2 for an immediate fluorescence measurement. Plates were read every 50 s from 0 to 10 min for kinetic data analysis using a microplate reader (Synergy H1, BioTek), with excitation and emission wavelengths at 490 nm and 520 nm, respectively, and analyzed by Gen 5 version 2.08 (BioTek).

The conditions of data set [4]: cited from earlier work.
[5] abbreviates: Log P estimated by RP-HPLC, extrapolated to 0% MeOH, SD at 95% confidence interval.

Usually chromatographic logP stands for a lipophilicity value derived from retention on a column. For orientation: melting point means the temperature, or range, at which the solid turns liquid.

`Oc1ccc(/C=C/c2ccc(C(F)(F)F)cc2)cc1` [Compound 7, 4-{(E)-2-[4-(Trifluoromethyl)phenyl]vinyl}phenol] returned a melting point of 161 to 163 °C. For the same compound, in data set [1] (60% MeOH), the Log k is 1.1515 and the “Retention factor (k)” value is recorded as 14.1757. In data set [1] (65% MeOH), the Log k was 0.8368 and the “Retention factor (k)” value is given as 6.8682. Also, in data set [1] (70% MeOH), the Log k was 0.5372 and the “Retention factor (k)” value is on record as 3.4447. Moreover, in data set [1] (75% MeOH), the Log k was 0.2568 and the “Retention factor (k)” value is given as 1.8063. In data set [1] (80% MeOH), the Log k is listed as −0.0429 and the “Retention factor (k)” value is recorded as 0.9059. In addition, the chromatographic logP in data set [1] (setting [5]) was 4.7 ± 0.05.
Regarding `O=[N+]([O-])c1ccc(/C=C/c2ccc(O)c(Cl)c2)cc1` [Compound 5], the “cell vitality (MTT reduction)” value with C2C12 cells [2] is on record as “non-significant dose-dependent decrease of vitality”. The Log k in data set [1] (60% MeOH) is reported as 0.9974; in data set [1] (65% MeOH), 0.7161; in data set [1] (70% MeOH), 0.4442; in data set [1] (75% MeOH), 0.1536; in data set [1] (80% MeOH), −0.0669. The “Retention factor (k)” value in data set [1] (60% MeOH) is recorded as 9.9412; in data set [1] (65% MeOH), 5.2008; in data set [1] (70% MeOH), 2.7812; in data set [1] (75% MeOH), 1.4243; in data set [1] (80% MeOH), 0.8573. The chromatographic logP in data set [1] (setting [5]) is 4.22 ± 0.09.
For `Oc1ccc(/C=C/c2ccc(Cl)cc2)cc1` [Compound 1, 4-[(E)-2-(4-Chlorophenyl)vinyl]phenol], the melting point fell in the range of 184 to 185 °C. Further, in data set [1] (60% MeOH), the Log k is 0.9828 and the “Retention factor (k)” value is listed as 9.6110. In data set [1] (65% MeOH), the Log k was 0.6845 and the “Retention factor (k)” value is reported as 4.8361. Besides, in data set [1] (70% MeOH), the Log k is listed as 0.4010 and the “Retention factor (k)” value was 2.5176. In addition, in data set [1] (75% MeOH), the Log k was 0.1330 and the “Retention factor (k)” value is listed as 1.3584. In data set [1] (80% MeOH), the Log k was −0.1255 and the “Retention factor (k)” value was 0.7490. The chromatographic logP in data set [1] (setting [5]) was 4.29 ± 0.07.
Compound `Oc1ccc(/C=C/c2ccc(Cl)cc2Cl)cc1Cl` [Compound 4, 2-Chloro-4-[(E)-2-(2,4-dichlorophenyl)vinyl] phenol] came in with a melting point of 135 to 136 °C. In data set [1] (60% MeOH), the Log k was 1.7713 and the “Retention factor (k)” value is on record as 59.0580. In addition, in data set [1] (65% MeOH), the Log k is 1.4456 and the “Retention factor (k)” value was 27.8973. Besides, in data set [1] (70% MeOH), the Log k is 1.1149 and the “Retention factor (k)” value is reported as 13.0290. Moreover, in data set [1] (75% MeOH), the Log k is 0.7826 and the “Retention factor (k)” value is listed as 6.0620. For the same compound, in data set [1] (80% MeOH), the Log k is 0.5423 and the “Retention factor (k)” value is on record as 3.4855. Besides, in data set [1] (setting [5]), the “Log P * ± SD” value is recorded as 5.50 ± 0.14 and the chromatographic logP was > 5.
`Oc1ccc(/C=C/c2ccc(Cl)cc2Cl)cc1` [Compound 3, 4-[(E)-2-(2,4-Dichlorophenyl)vinyl]phenol]: the melting point was 119 to 120 °C. In data set [1] (50% MeOH), the Log k is 2.1310 and the “Retention factor (k)” value is 135.2173. In data set [1] (60% MeOH), the Log k is 1.4819 and the “Retention factor (k)” value is recorded as 30.3325. Besides, in data set [1] (70% MeOH), the Log k is 0.8936 and the “Retention factor (k)” value is given as 7.8267. Besides, in data set [1] (75% MeOH), the Log k was 0.6070 and the “Retention factor (k)” value is recorded as 4.0455. In data set [1] (80% MeOH), the Log k is recorded as 0.3308 and the “Retention factor (k)” value was 2.1420. Also, in data set [1] (setting [5]), the chromatographic logP was 5.11 ± 0.07.
Compound `Oc1ccc(/C=C/c2ccccc2)cc1Cl` [Compound 2, 2-Chloro-4-[(E)-2-phenylvinyl]phenol] returned a melting point of 126 to 127 °C. Besides, in data set [1] (60% MeOH), the Log k is recorded as 1.0560 and the “Retention factor (k)” value is 11.3757. For the same compound, in data set [1] (65% MeOH), the Log k is 0.7826 and the “Retention factor (k)” value was 6.0620. In data set [1] (70% MeOH), the Log k is recorded as 0.5049 and the “Retention factor (k)” value is on record as 3.1984. Moreover, in data set [1] (75% MeOH), the Log k is on record as 0.2243 and the “Retention factor (k)” value is recorded as 1.6761. For the same compound, in data set [1] (80% MeOH), the Log k is 0.0216 and the “Retention factor (k)” value is given as 1.0510. The chromatographic logP in data set [1] (setting [5]) is 4.2 ± 0.12.
For the compound `Oc1ccc(/C=C/c2cc(O)cc(O)c2)cc1` [RSV, 3,5,4′-trihydroxy-trans-stilbene, reference compound], the “ROS levels (H2DCFDA fluorescence)” value in the data set on C2C12 cells [3] is on record as “reduce the ROS levels”. Besides, the “cell vitality (MTT reduction)” value in the data set on C2C12 cells [2] is recorded as “did not change the effects respect to the control”. Further, the Log k is 1.6477 in data set [1] (20% MeOH); 1.3573 in data set [1] (25% MeOH); 1.0693 in data set [1] (30% MeOH); 0.5493 in data set [1] (40% MeOH); 0.0010 in data set [1] (50% MeOH). Moreover, the “Retention factor (k)” value in data set [1] (20% MeOH) is on record as 44.4282; in data set [1] (25% MeOH), 22.7655; in data set [1] (30% MeOH) it was 11.7294; in data set [1] (40% MeOH) it was 3.5427; in data set [1] (50% MeOH), 1.0024. The chromatographic logP in data set [1] (setting [5]) was 2.47 ± 0.11. Besides, the bioavailability result in data set [4] is given as “less than 1%”. Besides, the oral bioavailability result in data set [4] (in vivo) is on record as “almost zero”.
